Experimental findings from PMC11053077, “HBO1 catalyzes lysine lactylation and mediates histone H3K9la to regulate gene transcription” (Nature Communications, 2024) are described below.

The target of test [1] is T1, HBO1 (Homo sapiens, UniProt O95251).
T1 construct: gene KAT7; HBO1 (336-611), acyltransferase/catalytic domain, purified from E. coli
Briefly: isothermal titration calorimetry (supported by in vitro histone lactylation assay with purified HBO1). Format: binding.

Test [2] addresses T1, HBO1. Briefly: isothermal titration calorimetry (supported by in vitro histone acetylation assay with purified HBO1). Format: binding.

Each structure is given as a SMILES string. pKd: −log10 of the molar value.

T1 sequence (O95251 336-611): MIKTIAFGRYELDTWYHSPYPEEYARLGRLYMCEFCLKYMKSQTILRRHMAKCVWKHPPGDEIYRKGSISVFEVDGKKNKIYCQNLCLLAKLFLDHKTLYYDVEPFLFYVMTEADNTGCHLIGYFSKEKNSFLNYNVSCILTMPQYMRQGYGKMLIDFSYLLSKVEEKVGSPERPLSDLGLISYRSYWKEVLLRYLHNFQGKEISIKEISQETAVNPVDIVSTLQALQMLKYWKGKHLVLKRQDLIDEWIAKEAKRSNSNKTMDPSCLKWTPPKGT

`C[C@H](O)C(=O)SCCNC(=O)CCNC(=O)[C@H](O)C(C)(C)COP(=O)(O)OP(=O)(O)OC[C@H]1O[C@@H](n2cnc3c(N)ncnc32)[C@H](O)[C@@H]1OP(=O)(O)O` [lactyl-CoA] gave a pKd in test [1] of 6.28.
Consider `CC(=O)SCCNC(=O)CCNC(=O)[C@H](O)C(C)(C)COP(=O)(O)OP(=O)(O)OC[C@H]1O[C@@H](n2cnc3c(N)ncnc32)[C@H](O)[C@@H]1OP(=O)(O)O` [acetyl-CoA], for which the pKd in test [2] was 5.84.
